# Assay results: US10081635B2, “Substituted N-(pyrrolidine-3-yl)-7H-pyrrolo[2,3-D]pyrimidine-4-amine as janus kinase inhibitor” (YANG JI CHEMICAL CO., LTD., priority 2014, dated 2018)
# Structures can show the parent of a compound that is named as a salt. Where two headings read alike, the source gives them in different places.
# What was measured:
# Human JAK3 [1] = target: T1, Human JAK3 (Homo sapiens (Human), UniProt P52333); assay: In vitro kinase inhibition test, JAK3 (33P-ATP filter scintillation); format: biochemical
# Human JAK2 [2] = target: T2, Human JAK2 (Homo sapiens (Human), UniProt O60674); assay: In vitro kinase inhibition test, JAK2 (33P-ATP filter scintillation); format: biochemical; conditions: compound at 1 uM; read-out: JAK2 kinase-phosphorylation inhibitory level (% inhibition)
# Human JAK1 [3] = target: T3, Human JAK1 (Homo sapiens (Human), UniProt P23458); assay: In vitro kinase inhibition test, JAK1 (33P-ATP filter scintillation); format: biochemical
# Human JAK3 [4] = target: T1, Human JAK3; assay: In vitro kinase inhibition test, JAK3 (33P-ATP filter scintillation); format: biochemical; conditions: compound at 1 uM; read-out: JAK3 kinase-phosphorylation inhibitory level (% inhibition)
# Human JAK1 [5] = target: T3, Human JAK1; assay: In vitro kinase inhibition test, JAK1 (33P-ATP filter scintillation); format: biochemical; conditions: compound at 1 uM; read-out: JAK1 kinase-phosphorylation inhibitory level (% inhibition)
# Human TYK2 [6] = target: T4, Human TYK2 (Homo sapiens (Human), UniProt P29597); assay: In vitro kinase inhibition test, TYK2 (33P-ATP filter scintillation); format: biochemical
# Human JAK2 [7] = target: T2, Human JAK2; assay: In vitro kinase inhibition test, JAK2 (33P-ATP filter scintillation); format: biochemical
# Human TYK2 [8] = target: T4, Human TYK2; assay: In vitro kinase inhibition test, TYK2 (33P-ATP filter scintillation); format: biochemical; conditions: compound at 1 uM; read-out: TYK2 kinase-phosphorylation inhibitory level (% inhibition)
# DBA/1J mice = assay: Collagen-induced arthritis (CIA) model, hind paw edema volume; format: in vivo, mouse; conditions: 50 mg/kg oral once a day
# Description: 2. Collagen-induced Arthritis (CIA) Model
# DBA/1J mice (6 weeks old, male) were purchased from Japan SLC, Inc., and maintained under controlled lighting in a 12-hour light/dark cycle (07:00-19:00). The temperature was maintained at about 22° C., and the mice were allowed to freely have feed and drinking water.
# Type II collagen (dissolved in 0.05 M acetic acid (2 mg/mL)) was kept at 4° C. prior to induction. On the first day of induction, prior to a first immunization, a complete Freund's adjuvant and type II collagen in an equal ratio were homogenized in a cooled tube using a homogenizer to obtain an emulsion of the type II collagen and the Freund's adjuvant. 0.1 mL of the emulsion was injected into mouse tails for the first immunization. […]
# Therapeutic efficacy of the compounds according to embodiments was determined using a collagen-induced mouse animal model. […]
# The degree of arthritic disease was determined based on the degree of paw edema obtained by measuring a volume of mouse hind paws of the experimental animals. A volume change in the hind paws was measured using a volume measuring flowmeter (Plethysmometer, Havard apparatus, USA, Cat no. 760220), wherein the volume was measured by putting the mouse hind legs into a measurement cell, from knee to paw. The volumes of both paws were measured, and a larger volume value between the two was used as a representative value. […]
# T3 sequence (P23458 whole entry): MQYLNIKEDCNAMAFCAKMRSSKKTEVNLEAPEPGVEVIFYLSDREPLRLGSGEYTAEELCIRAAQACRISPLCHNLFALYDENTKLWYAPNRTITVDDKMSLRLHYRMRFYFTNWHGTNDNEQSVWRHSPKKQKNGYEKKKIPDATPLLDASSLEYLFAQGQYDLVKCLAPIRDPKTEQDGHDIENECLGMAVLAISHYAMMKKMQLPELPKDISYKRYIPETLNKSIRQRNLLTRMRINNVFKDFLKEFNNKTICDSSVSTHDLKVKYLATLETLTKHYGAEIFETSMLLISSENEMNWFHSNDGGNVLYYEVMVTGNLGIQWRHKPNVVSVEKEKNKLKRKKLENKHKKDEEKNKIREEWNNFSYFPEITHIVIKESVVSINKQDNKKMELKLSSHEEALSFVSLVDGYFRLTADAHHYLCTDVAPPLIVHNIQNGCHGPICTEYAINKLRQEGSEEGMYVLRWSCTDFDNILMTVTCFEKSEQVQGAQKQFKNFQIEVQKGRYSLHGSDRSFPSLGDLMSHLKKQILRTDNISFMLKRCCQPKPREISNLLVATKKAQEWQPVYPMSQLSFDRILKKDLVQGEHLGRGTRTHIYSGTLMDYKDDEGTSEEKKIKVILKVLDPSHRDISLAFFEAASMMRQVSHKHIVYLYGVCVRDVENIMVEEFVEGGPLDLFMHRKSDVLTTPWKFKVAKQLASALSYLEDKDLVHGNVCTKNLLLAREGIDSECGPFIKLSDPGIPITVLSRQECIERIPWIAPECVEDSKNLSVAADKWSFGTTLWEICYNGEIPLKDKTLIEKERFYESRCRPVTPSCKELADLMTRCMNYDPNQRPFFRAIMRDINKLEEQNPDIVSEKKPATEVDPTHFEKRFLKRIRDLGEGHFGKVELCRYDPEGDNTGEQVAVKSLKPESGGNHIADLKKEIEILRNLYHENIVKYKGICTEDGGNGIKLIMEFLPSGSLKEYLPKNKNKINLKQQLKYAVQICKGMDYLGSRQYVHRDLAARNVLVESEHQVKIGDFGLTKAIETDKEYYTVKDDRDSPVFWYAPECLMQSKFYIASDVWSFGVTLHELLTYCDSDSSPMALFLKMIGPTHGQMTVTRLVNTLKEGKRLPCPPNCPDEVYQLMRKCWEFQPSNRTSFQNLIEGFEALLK
# T4 sequence (P29597 whole entry): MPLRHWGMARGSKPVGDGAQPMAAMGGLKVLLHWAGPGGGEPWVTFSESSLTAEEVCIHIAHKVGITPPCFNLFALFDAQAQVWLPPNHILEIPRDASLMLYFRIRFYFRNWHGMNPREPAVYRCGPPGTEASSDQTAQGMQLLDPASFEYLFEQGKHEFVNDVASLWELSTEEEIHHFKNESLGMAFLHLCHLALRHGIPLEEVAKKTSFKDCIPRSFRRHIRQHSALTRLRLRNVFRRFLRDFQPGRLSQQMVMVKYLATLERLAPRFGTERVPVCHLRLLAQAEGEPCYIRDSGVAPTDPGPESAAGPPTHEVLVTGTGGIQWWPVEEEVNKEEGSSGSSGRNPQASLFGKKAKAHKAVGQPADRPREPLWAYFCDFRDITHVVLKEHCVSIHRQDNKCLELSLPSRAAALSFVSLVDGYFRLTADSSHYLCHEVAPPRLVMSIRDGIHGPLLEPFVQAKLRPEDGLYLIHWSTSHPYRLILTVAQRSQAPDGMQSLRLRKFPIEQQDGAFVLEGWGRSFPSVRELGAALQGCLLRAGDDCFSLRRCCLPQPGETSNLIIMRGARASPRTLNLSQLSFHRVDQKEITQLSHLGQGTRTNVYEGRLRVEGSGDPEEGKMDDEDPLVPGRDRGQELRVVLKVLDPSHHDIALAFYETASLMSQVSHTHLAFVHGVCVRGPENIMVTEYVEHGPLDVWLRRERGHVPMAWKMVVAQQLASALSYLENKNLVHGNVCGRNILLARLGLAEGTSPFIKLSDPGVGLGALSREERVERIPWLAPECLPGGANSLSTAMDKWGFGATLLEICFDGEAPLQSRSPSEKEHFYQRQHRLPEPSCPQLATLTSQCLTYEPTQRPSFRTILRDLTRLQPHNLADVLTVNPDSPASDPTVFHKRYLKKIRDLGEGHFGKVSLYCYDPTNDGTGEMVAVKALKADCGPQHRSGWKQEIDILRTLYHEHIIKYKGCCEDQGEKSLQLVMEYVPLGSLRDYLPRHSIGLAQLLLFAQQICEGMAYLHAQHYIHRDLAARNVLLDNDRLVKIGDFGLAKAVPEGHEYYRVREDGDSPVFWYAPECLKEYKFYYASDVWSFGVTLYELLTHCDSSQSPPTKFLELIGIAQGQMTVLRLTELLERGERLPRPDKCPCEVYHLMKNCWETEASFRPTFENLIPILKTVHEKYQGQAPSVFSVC
# T2 sequence (O60674 whole entry): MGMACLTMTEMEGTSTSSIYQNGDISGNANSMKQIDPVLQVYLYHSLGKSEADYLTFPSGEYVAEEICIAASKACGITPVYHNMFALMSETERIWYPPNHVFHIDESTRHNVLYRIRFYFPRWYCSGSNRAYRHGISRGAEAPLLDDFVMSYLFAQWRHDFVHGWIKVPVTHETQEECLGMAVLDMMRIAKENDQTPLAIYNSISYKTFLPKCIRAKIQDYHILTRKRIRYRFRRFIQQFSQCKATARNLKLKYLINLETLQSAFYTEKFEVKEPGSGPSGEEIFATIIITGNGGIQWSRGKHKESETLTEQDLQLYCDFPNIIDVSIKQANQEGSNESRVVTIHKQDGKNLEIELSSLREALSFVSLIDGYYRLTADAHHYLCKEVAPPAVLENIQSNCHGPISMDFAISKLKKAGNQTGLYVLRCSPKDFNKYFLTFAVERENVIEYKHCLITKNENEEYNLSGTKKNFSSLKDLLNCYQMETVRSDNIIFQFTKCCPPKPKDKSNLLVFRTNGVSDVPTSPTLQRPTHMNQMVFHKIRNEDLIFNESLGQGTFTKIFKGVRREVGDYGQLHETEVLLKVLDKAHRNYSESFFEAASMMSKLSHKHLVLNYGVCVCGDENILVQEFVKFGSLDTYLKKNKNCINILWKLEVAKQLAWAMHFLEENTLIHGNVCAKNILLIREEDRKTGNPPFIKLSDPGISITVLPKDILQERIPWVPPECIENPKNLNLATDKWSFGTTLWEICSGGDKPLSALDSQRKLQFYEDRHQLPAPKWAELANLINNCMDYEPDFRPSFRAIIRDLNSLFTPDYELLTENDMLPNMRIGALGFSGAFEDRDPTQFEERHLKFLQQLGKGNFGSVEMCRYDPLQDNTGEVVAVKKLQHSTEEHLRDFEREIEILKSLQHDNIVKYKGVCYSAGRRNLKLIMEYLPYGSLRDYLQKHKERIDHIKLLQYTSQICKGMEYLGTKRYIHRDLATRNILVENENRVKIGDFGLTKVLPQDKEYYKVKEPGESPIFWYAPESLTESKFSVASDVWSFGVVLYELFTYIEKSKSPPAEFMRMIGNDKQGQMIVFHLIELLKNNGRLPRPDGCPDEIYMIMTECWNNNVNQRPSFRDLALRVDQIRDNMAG
# T1 sequence (P52333 whole entry): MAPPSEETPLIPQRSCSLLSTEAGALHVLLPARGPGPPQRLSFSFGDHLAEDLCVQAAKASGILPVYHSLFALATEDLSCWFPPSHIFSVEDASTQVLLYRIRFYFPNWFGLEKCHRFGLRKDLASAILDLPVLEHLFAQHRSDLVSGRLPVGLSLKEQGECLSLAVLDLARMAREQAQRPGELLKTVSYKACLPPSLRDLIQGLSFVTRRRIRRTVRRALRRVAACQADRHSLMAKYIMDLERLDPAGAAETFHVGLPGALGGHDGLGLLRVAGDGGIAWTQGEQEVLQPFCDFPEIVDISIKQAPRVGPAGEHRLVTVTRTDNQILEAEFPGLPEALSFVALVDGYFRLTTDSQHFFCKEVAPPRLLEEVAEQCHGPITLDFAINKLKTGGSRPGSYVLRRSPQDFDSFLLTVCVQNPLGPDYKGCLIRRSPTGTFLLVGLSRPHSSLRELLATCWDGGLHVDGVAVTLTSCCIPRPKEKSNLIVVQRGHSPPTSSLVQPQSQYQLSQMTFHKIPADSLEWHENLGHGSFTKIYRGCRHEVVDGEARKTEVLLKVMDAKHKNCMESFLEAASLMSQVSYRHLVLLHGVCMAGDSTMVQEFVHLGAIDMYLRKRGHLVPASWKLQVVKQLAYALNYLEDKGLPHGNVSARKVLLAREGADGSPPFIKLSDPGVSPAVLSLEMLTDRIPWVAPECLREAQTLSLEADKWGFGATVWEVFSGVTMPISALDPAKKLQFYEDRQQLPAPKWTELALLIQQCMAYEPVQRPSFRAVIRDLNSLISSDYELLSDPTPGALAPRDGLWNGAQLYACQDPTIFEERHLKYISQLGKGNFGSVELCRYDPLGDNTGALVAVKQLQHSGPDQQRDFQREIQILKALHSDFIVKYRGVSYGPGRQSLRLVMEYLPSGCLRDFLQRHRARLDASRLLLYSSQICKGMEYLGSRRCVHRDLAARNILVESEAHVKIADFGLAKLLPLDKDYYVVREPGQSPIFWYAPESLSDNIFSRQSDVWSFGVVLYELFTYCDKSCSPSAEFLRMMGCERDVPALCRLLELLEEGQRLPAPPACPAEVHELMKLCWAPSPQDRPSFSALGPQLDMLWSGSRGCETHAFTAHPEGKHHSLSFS
IC50 (Human JAK3 [1]) [nM],inhibition at 1 µM (Human JAK2 [2]) [%],IC50 (Human JAK1 [3]) [nM],inhibition at 1 µM (Human JAK3 [4]) [%],inhibition at 1 µM (Human JAK1 [5]) [%],IC50 (Human TYK2 [6]) [nM],IC50 (Human JAK2 [7]) [nM],inhibition at 1 µM (Human TYK2 [8]) [%],JAK1 inhibitory activity relative to the racemic mixture (Example 55) (Human JAK1 [3]; from IC50 values 8.5 nM vs 29.3 nM),inhibition at 1 µM (Human TYK2 [6]; read-out: TYK2 kinase-phosphorylation inhibitory level (% inhibition)) [%],SMILES,inhibition of hind paw edema as compared to the control group (DBA/1J mice; 49th day after the first immunization (end of measurement)),inhibition of hind paw edema as compared to the control group (DBA/1J mice; from the 31st day after the first immunization onwards) [%]
–,-9,–,-1,16,–,–,0,–,–,"CCC(=O)N1C[C@@H](N(C)c2ncnc3[nH]ccc23)C2(CC2)C1 [Example 64, (S)-1-(7-(methyl(7H-pyrrolo[2,3-d]pyrimidin-4-yl)amino)-5-azaspiro[2.4]heptan-5-yl)propan-1-one]",–,–
–,12,–,-16,41,–,–,14,–,–,"CN(c1ncnc2[nH]ccc12)[C@@H]1CN(C(=O)CN=[N+]=[N-])CC12CC2 [Example 65, (S)-2-azido-1-(7-(methyl(7H-pyrrolo[2,3-d]pyrimidin-4-yl)amino)-5-azaspiro[2.4]heptan-5-yl)ethan-1-one]",–,–
> 1000,-15,787,17,65,> 1000,> 1000,-16,–,–,"CN(c1ncnc2[nH]ccc12)[C@@H]1CN(C(=O)CC#N)CC12CC2 [Example 66, (S)-3-(7-(methyl(7H-pyrrolo[2,3-d]pyrimidin-4-yl)amino)-5-azaspiro[2.4]heptan-5-yl)-3-oxopropanenitrile]",–,–
–,-7,–,0,5,–,–,-4,–,–,"CNC(=O)CC(=O)N1C[C@@H](N(C)c2ncnc3[nH]ccc23)C2(CC2)C1 [Example 67, (S)-N-methyl-3-(7-(methyl(7H-pyrrolo[2,3-d]pyrimidin-4-yl)amino)-5-azaspiro[2.4]heptan-5-yl)-3-oxopropanamide]",–,–
–,-5,–,-7,14,–,–,2,–,–,"CN(c1ncnc2[nH]ccc12)[C@@H]1CN(C(=O)c2ccc(C#N)cc2)CC12CC2 [Example 68, (S)-4-(7-(methyl(7H-pyrrolo[2,3-d]pyrimidin-4-yl)amino)-5-azaspiro[2.4]heptane-5-carbonyl)benzonitrile]",–,–
–,6,–,9,58,–,–,36,–,–,"CN(c1ncnc2[nH]ccc12)[C@@H]1CN(C(=S)CC#N)CC12CC2 [Example 69, (S)-3-(7-(methyl(7H-pyrrolo[2,3-d]pyrimidin-4-yl)amino)-5-azaspiro[2.4]heptan-5-yl)-3-thioxopropanenitrile]",–,–
–,24,–,-3,31,–,–,5,–,–,"CC(C)COC(=O)N1C[C@@H](N(C)c2ncnc3[nH]ccc23)C2(CC2)C1 [Example 70, isobutyl (S)-7-(methyl(7H-pyrrolo[2,3-d]pyrimidin-4-yl)amino)-5-azaspiro[2.4]heptane-5-carboxylate]",–,–
–,13,–,-22,40,–,–,12,–,–,"CCS(=O)(=O)N1C[C@@H](N(C)c2ncnc3[nH]ccc23)C2(CC2)C1 [Example 71, (S)-N-(5-(ethylsulfonyl)-5-azaspiro[2.4]heptan-7-yl)-N-methyl-7H-pyrrolo[2,3-d]pyrimidin-4-amine]",–,–
–,10,–,-1,55,–,–,28,–,–,"CN(c1ncnc2[nH]ccc12)[C@@H]1CN(S(=O)(=O)c2ccccc2)CC12CC2 [Example 72, (S)-N-methyl-N-(5-(phenylsulfonyl)-5-azaspiro[2.4]heptan-7-yl)-7H-pyrrolo[2,3-d]pyrimidin-4-amine]",–,–
–,–,–,–,–,–,–,–,–,100,"C[C@@H]1CCN(C(=O)CC#N)C[C@@H]1N(C)c1ncnc2[nH]ccc12 [tofacitinib citrate, reference compound]",–,–

# More lines, now with the values behind:
SMILES,IC50 (Human JAK3 [1]) [nM],inhibition at 1 µM (Human JAK2 [2]) [%],IC50 (Human JAK1 [3]) [nM],inhibition at 1 µM (Human JAK3 [4]) [%],inhibition at 1 µM (Human JAK1 [5]) [%],IC50 (Human TYK2 [6]) [nM],IC50 (Human JAK2 [7]) [nM],inhibition at 1 µM (Human TYK2 [8]) [%],JAK1 inhibitory activity relative to the racemic mixture (Example 55) (Human JAK1 [3]; from IC50 values 8.5 nM vs 29.3 nM),inhibition at 1 µM (Human TYK2 [6]; read-out: TYK2 kinase-phosphorylation inhibitory level (% inhibition)) [%],inhibition of hind paw edema as compared to the control group (DBA/1J mice; 49th day after the first immunization (end of measurement)),inhibition of hind paw edema as compared to the control group (DBA/1J mice; from the 31st day after the first immunization onwards) [%]
"CN(c1ncnc2[nH]ccc12)C1CN(C(=O)CC#N)CC12CC2 (racemic) [Example 55, 3-(7-(methyl(7H-pyrrolo[2,3-d]pyrimidin-4-yl)amino)-5-azaspiro[2.4]heptan-5-yl)-3-oxopropanenitrile]",694,53,29.3,30,95,40.4,148,58,–,–,–,–
"CCS(=O)(=O)N1CC(N(C)c2ncnc3[nH]ccc23)C2(CC2)C1 (racemic) [Example 62, N-(5-(ethylsulfonyl)-5-azaspiro[2.4]heptan-7-yl)-N-methyl-7H-pyrrolo[2,3-d]pyrimidin-4-amine]",> 1000,59,2.8,59,95,198,422,67,–,–,–,–
"CN(c1ncnc2[nH]ccc12)[C@H]1CN(C(=O)CC#N)CC12CC2 [Example 5, (R)-3-(7-(methyl(7H-pyrrolo[2,3-d]pyrimidin-4-yl)amino)-5-azaspiro[2.4]heptan-5-yl)-3-oxopropanenitrile]",1090,79,8.5,50,95,252,412,82,about 3.5 fold,–,about 64%,≥ 60
"CN(c1ncnc2[nH]ccc12)[C@H]1CN(S(=O)(=O)c2cccc(C#N)c2)CC12CC2 [Example 41, (R)-3-((7-(methyl(7H-pyrrolo[2,3-d]pyrimidin-4-yl)amino)-5-azaspiro[2.4]heptan-5-yl)sulfonyl)benzonitrile]",110,99,5.8,77,99,24.7,58.6,97,–,–,–,–
"CC(C)COC(=O)N1CC(N(C)c2ncnc3[nH]ccc23)C2(CC2)C1 (stereo not shown) [Example 61, isobutyl 7-(methyl(7H-pyrrolo[2,3-d]pyrimidin-4-yl)amino)-5-azaspiro[2.4]heptane-5-carboxylate]",–,-9,–,29,85,–,–,22,–,–,–,–
"CN(c1ncnc2[nH]ccc12)C1CN(S(=O)(=O)CCN)CC12CC2 (stereo not shown) [Example 63, N-(5-((2-aminoethyl)sulfonyl)-5-azaspiro[2.4]heptan-7-yl)-N-methyl-7H-pyrrolo[2,3-d]pyrimidin-4-amine]",–,43,–,7,91,–,–,29,–,–,–,–
"CCN1C[C@H](N(C)c2ncnc3[nH]ccc23)C2(CC2)C1 [Example 73, (R)-N-(5-ethyl-5-azaspiro[2.4]heptan-7-yl)-N-methyl-7H-pyrrolo[2,3-d]pyrimidin-4-amine]",–,-6,–,1,42,–,–,-7,–,–,–,–
